Reference: patent US6060462A, “Electrophilic peptide analogs as inhibitors of trypsin-like enzymes” (DuPont Pharmaceuticals Company, priority 1997, dated 2000)
Structures can show the parent of a compound that is named as a salt.

What was measured:
Type in all cases: biochemical
human factor VIIa = molecular target: T1, human factor VIIa (Homo sapiens, UniProt P08709); test: Inhibition of Factor VIIa hydrolysis of chromogenic substrate S2288 (Ki); conditions: purified human factor VIIa, 0.05 M tris buffer; for Ki values for inhibition of Serine Proteases: Factor VIIa: pH 7.6; for Ki: pH 7.6, read-out: Ki values for inhibition of Serine Proteases: Factor VIIa
T1 construct: 50 nM human factor VIIa (BiosPacific, Emeryville, Calif.); purchased BiosPacific, Emeryville, Calif
T1 sequence (P08709 213-466 limits assumed): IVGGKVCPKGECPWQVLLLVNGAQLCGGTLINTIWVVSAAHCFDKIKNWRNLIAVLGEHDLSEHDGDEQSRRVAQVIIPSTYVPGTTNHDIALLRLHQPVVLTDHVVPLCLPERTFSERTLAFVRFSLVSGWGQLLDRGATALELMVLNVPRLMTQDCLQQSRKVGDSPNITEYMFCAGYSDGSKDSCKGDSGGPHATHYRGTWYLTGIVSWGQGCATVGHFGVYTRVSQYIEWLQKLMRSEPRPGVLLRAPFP
T1 sequence (P08709 61-212 partner limits assumed): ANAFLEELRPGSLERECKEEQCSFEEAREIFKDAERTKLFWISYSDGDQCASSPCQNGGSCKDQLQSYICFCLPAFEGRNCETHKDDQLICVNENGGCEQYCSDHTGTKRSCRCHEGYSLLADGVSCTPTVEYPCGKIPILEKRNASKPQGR
Procedure: (§1) The effectiveness of compounds of the present invention as inhibitors of blood coagulation proteases was determined using purified human proteases and synthetic substrates following procedures similar to those described in Kettner et al. (1990).
(§2) For these assays, the rate of enzymatic (thrombin, Factor Xa, and Factor VIIa) hydrolysis of chromogenic substrates (S2238 (H-D-Phe-Pip-Arg-pNA), S2222, and S2288, respectively; Kabi Pharmacia, Franklin, Ohio) was measured both in the absence and presence of compounds of the present invention. […] A decrease in the rate of absorbance change at 405 nm in the presence of inhibitor is indicative of enzyme inhibition. The results of this assay are expressed as inhibitory constant, Ki.
(§3) Thrombin and Xa determinations were made in 0.10 M sodium phosphate buffer, pH 7.5, containing 0.20 M NaCl, and 0.5% PEG 8000. VIIa determinations were made in 0.05 M tris buffer, pH 7.6, containing 0.10 M NaCl, 4 mM CaCl2, and 0.1% bovine serum albumin.
(§4) Reactions were allowed to go for 30 minutes and the velocities (rate of absorbance change vs time) were measured in the time frame of 25-30 minutes. The following relationship was used to calculate Ki values. [formula] where: vo is the velocity of the control in the absence of inhibitor;
(§5) vs is the velocity in the presence of inhibitor;
(§6) I is the concentration of inhibitor;
(§7) Ki is the dissociation constant of the enzyme: inhibitor complex;
(§8) S is the concentration of substrate;
(§9) Km is the Michaelis constant.

human thrombin = human thrombin (Homo sapiens, UniProt P00734); test: Inhibition of thrombin hydrolysis of chromogenic substrate S2238 (Ki); design: 0.2-0.5 nM human thrombin or human factor Xa; purchased Enzyme Research Laboratories, South Bend, Ind; conditions: purified human thrombin, 0.10 M sodium phosphate buffer, pH 7.5, read-out: Ki values for inhibition of Serine Proteases: Trombin
Procedure: as §1, §2, §3, §4, §5, §6, §7, §8, §9

human factor Xa = molecular target: T2, human factor Xa (Homo sapiens, UniProt P00742); test: Inhibition of Factor Xa hydrolysis of chromogenic substrate S2222 (Ki); conditions: purified human factor Xa, 0.10 M sodium phosphate buffer; for Ki: pH 7.5, read-out: Ki values for inhibition of Serine Proteases: Factor Xa
T2 construct: 0.2-0.5 nM human thrombin or human factor Xa; purchased Enzyme Research Laboratories, South Bend, Ind
T2 sequence (P00742 235-488 limits assumed): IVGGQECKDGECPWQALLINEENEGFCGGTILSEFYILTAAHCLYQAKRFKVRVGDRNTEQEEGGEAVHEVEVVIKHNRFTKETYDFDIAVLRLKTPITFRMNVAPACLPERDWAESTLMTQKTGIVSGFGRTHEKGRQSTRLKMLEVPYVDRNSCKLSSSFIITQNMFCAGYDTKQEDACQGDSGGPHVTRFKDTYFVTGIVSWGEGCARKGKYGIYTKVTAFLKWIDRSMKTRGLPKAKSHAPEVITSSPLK
T2 sequence (P00742 41-179 partner limits assumed): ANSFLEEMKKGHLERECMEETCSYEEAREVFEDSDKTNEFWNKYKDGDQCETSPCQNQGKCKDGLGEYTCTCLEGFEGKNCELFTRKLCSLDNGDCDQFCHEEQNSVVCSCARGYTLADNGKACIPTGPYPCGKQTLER
Procedure: as §1, §2, §3, §4, §5, §6, §7, §8, §9

Molecule	Ki values for inhibition of Serine Proteases: Factor VIIa (human factor VIIa)	Ki (human thrombin) [nM]	Ki (human factor Xa) [nM]	Ki (human factor VIIa) [nM]	Ki values for inhibition of Serine Proteases: Factor Xa (human factor Xa; pH 7.5)
CN(CC(=O)NC(CCCN)B1OC2CC3CC(C3(C)C)C2(C)O1)C(=O)c1ccccc1Sc1ccccc1.Cl (stereo not drawn) [Example 63.3.1, 2-(Thiophenyl)-Benzoyl-Sar-boroOrn-C10H16 HCl]	inactive	< 500	< 50000	–	–
NCCCCC(NC(=O)CN(CCc1cccc(C(F)(F)F)c1)C(=O)CCc1ccccc1)B(O)O (stereo not drawn) [Example 52.1.1, Hydrocinnamoyl-[N-(3-(Trifluoromethyl)-Phenethyl)-Gly]-boroLys--OH HCl]	–	< 500	< 500	< 50000	–
COC(=O)CC(C)(C)CC(=O)N(CCc1ccccc1)CC(=O)NC(CCCCN)B1OC2CC3CC(C3(C)C)C2(C)O1 (stereo not drawn) [Example 67.1.3, Methyl Glutaryl(3,3-Dimethyl)-[N-(Phenethyl)-Gly]-boroLys-C10H16 HCl]	–	< 500	< 500	< 50000	–
CC1(C)C2CC3OB(C(CCCN)NC(=O)CN(CCc4ccccc4)C(=O)CCc4ccccc4)OC3(C)C1C2.Cl (stereo not drawn) [Example 49.1.1, Hydrocinnamoyl-[N-(Phenethyl)-Gly]-boroOrn-C10H16HCl]	inactive	< 500	< 50000	–	–
CN(CC(=O)NC(CCCCN)B1OC2CC3CC(C3(C)C)C2(C)O1)C(=O)c1ccccc1Cc1cccc(Cl)c1 (stereo not drawn) [Example 64.2.3, 2-(3-chlorobenzyl)-benzoyl-Sar-Borolys C10 H16.HCl]	–	< 500	< 500	< 500	–
Cc1cc(C)cc(C(C)(C)CN(CC(=O)NC(CCCN=C(N)N)B2OC3CC4CC(C4(C)C)C3(C)O2)C(=O)CCc2ccccc2)c1 (stereo not drawn) [Example 56.3.3, Hydrocinnamoyl-{N-[2,2-(Dimethyl)-2-(3,5-dimethylphenyl)-ethyl]-Gly}-boroArg-C10H16 HCl]	–	< 500	< 500	< 500	–
CN(CC(=O)NC(CO)CCCCN)C(=O)CCc1ccccc1 (stereo not drawn) [Example 61.3.1, Hydrocinnamoyl-Sar-NHCH(CH20H)(CH2)4--NH2]	Inactive	< 50000	–	–	Inactive
CC1(C)C2CC3OB(C(CCCCN)NC(=O)CN(CCc4cccc(C(F)(F)F)c4)C(=O)CCc4ccccc4)OC3(C)C1C2 (stereo not drawn) [Example 51.1.1, Hydrocinnamoyl-[N-(3-(Trifluoromethyl)-Phenethyl)-Gly]-boroLys--C10H16 HCl]	–	< 500	< 500	< 50000	–
CN(CC(=O)NC(CCCNC(=N)N)B1OC2CC3CC(C3(C)C)C2(C)O1)C(=O)c1ccccc1Sc1ccccc1C#N (stereo not drawn) [Example 62.3.3, 2-(2-cyanothiophenyl)-benzoyl-Sar-BoroArg C10 H16.HCl]	–	< 500	< 500	< 500	–
NCCCCC(NC(=O)CN(C(=O)CCc1ccccc1)C1CCCCC1)B(O)O (stereo not drawn) [Example 53.4.3, Hydrocinnamoyl-[N-(Cyclohexyl)-Gly]-boroLys--OH HCl]	–	< 500	< 50000	< 500	–
COC(=O)CCC(=O)N(CC(=O)NC(CCCCN)B1OC2CC3CC(C3(C)C)C2(C)O1)C(=O)CCc1ccccc1 (stereo not drawn) [Example 54.3.1, Hydrocinnamoyl-[N-(Methyl Succinyl)-Gly]-boroLys-C10H16 HCl]	–	< 500	< 50000	< 50000	–
Hydrocinnamoyl-Sar-Lys[C(O)CO2 H] [Example 61.1.1]	–	< 500	< 50000	< 50000	–
Cc1cc(C)cc(CCN(CC(=O)NC(CCCN)B2OC3CC4CC(C4(C)C)C3(C)O2)C(=O)CCc2ccccc2)c1 (stereo not drawn) [Example 60.4.1, Hydrocinnamoyl-{N-[2-(3,5-dimethylphenyl)-ethyl]-Gly}-boroOrn-C10H16 HCl]	–	< 500	< 50000	< 50000	–
Hydrocinnamoyl-Sar-Lys--C(=O)--O--(CH2)2--NH2 2 HCl [Example 61.1.3]	Inactive	< 50000	< 50000	–	–
CC(C)(C)OC(=O)NC(CCC(=O)O)C(=O)N(CCc1ccccc1)CC(=O)NC(CCCCN)B(O)O (stereo not drawn) [Example 68.2.1, Boc-Glu-[N-(Phenethyl)-Gly]-boroLys--OH]	–	< 500	< 50000	< 50000	–
CC(C)(CN(CC(=O)NC(CCCNC(=N)N)B1OC2CC3CC(C3(C)C)C2(C)O1)C(=O)CCc1ccccc1)c1ccccc1 (stereo not drawn) [Example 56.1.1, Hydrocinnamoyl-[N-(2,2-(Dimethyl)-Phenethyl)-Gly]-boroArg-C10H16 HCl]	–	< 500	< 500	< 500	–
CN(CC(=O)NC(CCCCSC(=N)N)B1OC2CC3CC(C3(C)C)C2(C)O1)C(=O)c1ccccc1Sc1ccccc1C#N (stereo not drawn) [Example 62.2.2, (2-(2-Cyano)-Thiophenyl)-Benzoyl-Sar-borohomoIrg-C10H16 HBr]	–	< 500	< 500	< 50000	–
CN(CC(=O)NC(CCCCN=[N+]=[N-])B1OC2CC3CC(C3(C)C)C2(C)O1)C(=O)c1ccccc1Sc1ccccc1C#N (stereo not drawn) [Example 62.2.3]	–	< 50000	< 50000	< 50000	–
CCC(CC)(CN(CC(=O)NC(CCCCN)B1OC2CC3CC(C3(C)C)C2(C)O1)C(=O)CCc1ccccc1)c1ccccc1 (stereo not drawn) [Example 54.1.3, Hydrocinnamoyl-[N-(2,2-(Diethyl)-Phenethyl)-Gly]-boroLys-C10H16 HCl]	–	< 500	< 50000	< 500	–
CC(C)(CN(CC(=O)NC(CCCN)B1OC2CC3CC(C3(C)C)C2(C)O1)C(=O)CCc1ccccc1)c1ccccc1 (stereo not drawn) [Example 60.3.3, Hydrocinnamoyl-[N-(2,2-(Dimethyl)-Phenethyl)-Gly]-boroOrn-C10H16 HCl]	–	< 500	< 50000	< 50000	–
CN(CC(=O)NC(CCCCNC(=N)N)B1OC2CC3CC(C3(C)C)C2(C)O1)C(=O)c1ccccc1Sc1ccccc1C#N (stereo not drawn) [Example 62.3.2, (2-(2-Cyano)-Thiophenyl)-Benzoyl-Sar-borohomoArg-C10H16 HCl]	–	< 500	< 500	< 50000	–
(2-(2-Cyano)-Thiophenyl)-Benzoyl-Sar-boroLys(CH=NH)-C10H16 HCl [Example 62.4.2]	–	< 500	< 500	< 50000	–
CC1(C)C2CC3OB(C(CCCCN)NC(=O)CN(CCc4ccccc4C4CCCC4)C(=O)CCc4ccccc4)OC3(C)C1C2 (stereo not drawn) [Example 54.3.2, Hydrocinnamoyl-[N-(2-(Cyclopentyl)-Phenethyl)-Gly]-boroLys-C10H16 HCl]	–	< 500	< 50000	< 500	–
CC1(C)C2CC3OB(C(CCCNC(=N)N)NC(=O)CN(CCc4ccccc4C4CC4)C(=O)CCc4ccccc4)OC3(C)C1C2 (stereo not drawn) [Example 56.1.2, Hydrocinnamoyl-[N-(2-(Cyclopropyl)-Phenethyl)--Gly]-boroArg-C10H16 HCl]	–	< 500	< 500	< 500	–
CC1(C)C2CC3OB(C(CCCCN)NC(=O)CN(C(=O)CCC(=O)O)C(=O)CCc4ccccc4)OC3(C)C1C2 (stereo not drawn) [Example 54.2.3, Hydrocinnamoyl-[N-(Succinyl)-Gly]-boroLys-C10H16]	–	< 500	< 50000	< 50000	–
CN(CC(=O)NC(CCCN=[N+]=[N-])B1OC2CC3CC(C3(C)C)C2(C)O1)C(=O)c1ccccc1Sc1ccccc1C#N (stereo not drawn) [Example 62.2.1]	–	< 50000	< 50000	< 50000	–
2-(Benzyl)-Benzoyl-Sar-Lys--C(=O)--NHNH2 2 HCl [Example 70.4.2]	inactive	< 50000	< 50000	–	–
(2-(2-Cyano)-Thiophenyl)-Benzoyl-Sar-boroOrn(CH=NH)-C10H16 HCl [Example 62.4.1]	–	< 500	< 500	< 500	–
